Measured values from paper PMC8159961, “Exploring protein hotspots by optimized fragment pharmacophores” (Nature Communications, 2021).

Assays:
[1] = molecular target: T1, human 5-HT1A receptor (Homo sapiens, UniProt P08908); test: GPCR radioligand binding assay, [3H]-8-OH-DPAT displacement, HEK293 membranes; details: for %inh 5-HT1A average: average of exp_1 and exp_2; for %inh 5-HT1A corrected*: average, values below 0 and above 100% were set as 0 and 100; for %inh 5-HT1A exp_1: replicate exp_1; for %inh 5-HT1A exp_2: replicate exp_2; for 5-HT1A % Inhibition by plate position: 10 µM
T1 construct: expressed in transfected cells
T1 sequence (P08908 1-422): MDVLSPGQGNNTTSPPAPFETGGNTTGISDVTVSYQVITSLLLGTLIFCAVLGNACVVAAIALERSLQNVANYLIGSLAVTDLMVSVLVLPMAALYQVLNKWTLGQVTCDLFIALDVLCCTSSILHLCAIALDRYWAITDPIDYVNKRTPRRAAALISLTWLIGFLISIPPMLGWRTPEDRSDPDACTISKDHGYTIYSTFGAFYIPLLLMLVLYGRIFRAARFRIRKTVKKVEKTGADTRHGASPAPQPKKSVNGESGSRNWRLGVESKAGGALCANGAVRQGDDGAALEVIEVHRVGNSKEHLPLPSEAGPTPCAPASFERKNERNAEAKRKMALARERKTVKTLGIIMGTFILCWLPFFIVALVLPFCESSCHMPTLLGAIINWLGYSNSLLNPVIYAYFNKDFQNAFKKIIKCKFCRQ

[2] = molecular target: T2, human 5-HT6 receptor (Homo sapiens, UniProt P50406); test: GPCR radioligand binding assay, [3H]-LSD displacement, HEK293 membranes; details: for 5-HT6 % Inhibition by plate position: 10 µM; for %inh 5-HT6 average: average of exp_1 and exp_2; for %inh 5-HT6 corrected*: average, values below 0 and above 100% were set as 0 and 100; for %inh 5-HT6 exp_1: replicate exp_1; for %inh 5-HT6 exp_2: replicate exp_2
T2 construct: expressed in transfected cells

[3] = molecular target: T3, human 5-HT7b receptor (Homo sapiens, UniProt P34969); test: GPCR radioligand binding assay, [3H]-5-CT displacement, HEK293 membranes; details: for 5-HT7 % Inhibition by plate position: 10 µM; for %inh 5-HT7 exp_1: replicate exp_1; for %inh 5-HT7 exp_2: replicate exp_2; for %inh 5-HT7 average: average of exp_1 and exp_2
T3 construct: expressed in transfected cells
T3 sequence (P34969 1-432): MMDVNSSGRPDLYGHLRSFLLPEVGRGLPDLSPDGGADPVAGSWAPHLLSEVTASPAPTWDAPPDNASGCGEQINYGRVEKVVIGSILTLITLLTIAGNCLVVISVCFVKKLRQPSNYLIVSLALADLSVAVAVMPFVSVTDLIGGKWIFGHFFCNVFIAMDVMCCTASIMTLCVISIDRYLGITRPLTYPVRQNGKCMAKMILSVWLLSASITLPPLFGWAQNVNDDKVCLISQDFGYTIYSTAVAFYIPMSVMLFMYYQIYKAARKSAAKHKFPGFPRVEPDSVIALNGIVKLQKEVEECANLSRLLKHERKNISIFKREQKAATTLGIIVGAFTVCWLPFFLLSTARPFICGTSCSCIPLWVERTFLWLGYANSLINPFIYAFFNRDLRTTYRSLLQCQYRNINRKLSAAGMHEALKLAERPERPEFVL

T2 sequence (P50406 whole entry): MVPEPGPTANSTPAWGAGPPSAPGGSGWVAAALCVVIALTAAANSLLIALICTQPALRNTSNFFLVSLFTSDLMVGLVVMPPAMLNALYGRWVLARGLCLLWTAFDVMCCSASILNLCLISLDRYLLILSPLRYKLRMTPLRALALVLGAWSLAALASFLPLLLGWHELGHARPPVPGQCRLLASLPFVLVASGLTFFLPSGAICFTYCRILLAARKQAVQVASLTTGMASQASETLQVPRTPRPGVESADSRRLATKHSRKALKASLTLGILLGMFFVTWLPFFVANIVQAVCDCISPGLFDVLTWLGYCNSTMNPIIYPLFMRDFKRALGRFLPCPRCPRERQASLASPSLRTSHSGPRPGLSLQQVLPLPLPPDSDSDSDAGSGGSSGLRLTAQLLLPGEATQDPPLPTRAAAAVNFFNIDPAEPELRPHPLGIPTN

SMILES	%inh 5-HT1A average [1] [%]	%inh 5-HT1A corrected* [1] [%]	%inh 5-HT1A exp_1 [1] [%]	%inh 5-HT1A exp_2 [1] [%]	5-HT6 % Inhibition by plate position [2] [%]	%inh 5-HT6 average [2] [%]	%inh 5-HT6 corrected* [2] [%]	%inh 5-HT6 exp_1 [2] [%]	%inh 5-HT6 exp_2 [2] [%]	5-HT7 % Inhibition by plate position [3] [%]	%inh 5-HT7 exp_1 [3] [%]	%inh 5-HT7 exp_2 [3] [%]	5-HT1A % Inhibition by plate position [1] [%]	%inh 5-HT7 average [3] [%]
Fc1ccc(CC2CCCNC2)cc1 (centres unmarked) [C1]	21	21	23	19	42	42	42	47	37	22	27	18	–	–
c1ccc2c(N3CCNCC3)ccnc2c1 [C4]	81	81	78	83	72	72	72	71	72	16	17	15	–	–
CCCN1C(=O)CC(=O)NC1=S [D5]	-8.49	–	-9	-8	49	49	49	57	41	10	13	6	0	–
O=c1ccc2c([nH]1)CCCC2 [C5]	-1.35	–	-18	15	46	46	46	39	53	1	0.605	1.43	0	–
Cc1nc(-c2ccccc2)cs1 [A7]	-4.34	–	-13	4	50	50	50	50	50	0	-4	3.71	0	-0.168
CCn1cnc2ccccc21 [D4]	-8	–	-16	0	23	23	23	23	23	0	1.55	-12	0	-5.34
CC(=O)c1ccc2c(c1)CNCC2 [C8]	-13	–	-22	-3.26	2.55	2.55	2.55	6	-1	4	8	0	0	–
O=C(CN1CCCC1)c1ccccc1Cl [G10]	78	78	77	79	19	19	19	17	20	3.47	8	-1	–	–
O=C1CC(CSc2ccc(Cl)cc2)=NN1 [H8]	-0.353	–	-4	3.38	12	12	12	9	14	0	-1	-14	0	-7
Nc1ccc(SC(F)F)cc1 [D1]	-16	–	-6.6	-25	45	45	45	52	38	8	5.58	10	0	–
Cc1cnc(C(F)(F)F)cn1 [B9]	1.1	1.1	-7	9	32	32	32	32	33	11	14	7	–	–
CS(=O)(=O)c1ccc(OC(F)(F)F)cc1 [B8]	-30	–	-20	-40	4	4	4	0	8	6	3.74	8	0	–
N#Cc1ccc2ncsc2c1 [C12]	5.41	5.41	11	-0.546	35	35	35	39	32	0	-6	-8.5	–	-7
c1ccc2oc(C3CCCNC3)nc2c1 (centres unmarked) [D10]	78	78	77	80	25	25	25	22	28	0	-4	3.22	–	-0.305
